Laboratory results from the supplement of paper PMC8149375.

Experiments:
Details in all cases: treatment: drug + dasatinib (fixed dose, not stated); 5 days
[1] = system: ACHN; assay: AUC of dose-response viability curve, drug + dasatinib, normalised to DMSO (arbitrary (AUC of normalised viability)); higher = less growth inhibition
Method: (§1)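 Primary HTS combination arm: 8 RCC cell lines treated with 8 doses (up to 10 uM) of each library drug plus a fixed dose of dasatinib (dose not stated) for 5 days; viability read by CellTiter-Glo and normalised to DMSO. GI50 was fitted with XLfit, AUC is the area under the dose-response curve, and minimum viability is the lowest fraction of DMSO viability across doses.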

[2] = system: SN12C; assay: as above
Method: as §1

[3] = system: 769-P; assay: as above
Method: as §1

[4] = system: CAKI-1; assay: as above
Method: as §1

[5] = system: TK-10; assay: as above
Method: as §1

[6] = system: UO-31; assay: as above
Method: as §1

[7] = system: 786-O; assay: as above
Method: as §1

[8] = system: A498; assay: as above
Method: as §1

[9] = system: ACHN; assay: GI50 of drug in presence of dasatinib; higher = less potent
Method: as §1

[10] = system: SN12C; assay: as above
Method: as §1

[11] = system: 769-P; assay: as above
Method: as §1

[12] = system: CAKI-1; assay: as above
Method: as §1

[13] = system: TK-10; assay: as above
Method: as §1

[14] = system: UO-31; assay: as above
Method: as §1

[15] = system: 786-O; assay: as above
Method: as §1

[16] = system: A498; assay: as above
Method: as §1

[17] = system: ACHN; assay: minimum viability across doses, drug + dasatinib, relative to DMSO (fraction); higher = less growth inhibition
Method: as §1

[18] = system: SN12C; assay: as above
Method: as §1

[19] = system: 769-P; assay: as above
Method: as §1

[20] = system: CAKI-1; assay: as above
Method: as §1

[21] = system: TK-10; assay: as above
Method: as §1

[22] = system: UO-31; assay: as above
Method: as §1

[23] = system: 786-O; assay: as above
Method: as §1

[24] = system: A498; assay: as above
Method: as §1

Row | GI50 of drug [9] [µM] | GI50 of drug [15] [µM] | Structure (SMILES) | AUC of dose-response viability curve [1] | AUC of dose-response viability curve [2] | AUC of dose-response viability curve [3] | AUC of dose-response viability curve [4] | AUC of dose-response viability curve [5] | AUC of dose-response viability curve [6] | AUC of dose-response viability curve [7] | AUC of dose-response viability curve [8] | GI50 of drug [10] [µM] | GI50 of drug [11] [µM] | GI50 of drug [12] [µM] | GI50 of drug [13] [µM] | GI50 of drug [14] [µM] | GI50 of drug [16] [µM] | minimum viability across doses [17] | minimum viability across doses [18] | minimum viability across doses [19] | minimum viability across doses [20] | minimum viability across doses [21] | minimum viability across doses [22] | minimum viability across doses [23] | minimum viability across doses [24]
1 | > 10 | > 10 | Cn1cc(C2=C(c3ccc(Cl)cc3Cl)C(=O)NC2=O)c2ccccc21 + Cc1nc(Nc2ncc(C(=O)Nc3c(C)cccc3Cl)s2)cc(N2CCN(CCO)CC2)n1 [dasatinib] | 2.2 | 2.53 | 2.36 | 0.956 | 2.74 | 3.15 | 2.55 | 3.8 | > 10 | 5.29 | > 10 | > 10 | 6.21 | > 10 | 0.548 | 0.642 | 0.288 | 0.562 | 0.532 | 0.191 | 0.587 | 0.929
2 | 0.361 | 0.476 | Nc1ccc(C(=O)Nc2cccc(-c3nc(N4CCOCC4)c4oc5ncccc5c4n3)c2)cn1 + Cc1nc(Nc2ncc(C(=O)Nc3c(C)cccc3Cl)s2)cc(N2CCN(CCO)CC2)n1 [dasatinib] | 1.68 | 2.16 | 1.99 | 1.61 | 2.16 | 3.17 | 1.81 | 3.03 | 2.59 | 0.85 | 0.256 | 0.973 | 1.51 | 6.74 | 0.152 | 0.345 | 0.0371 | 0.0783 | 0.0664 | 0.0122 | 0.00383 | 0.283
3 | 6.75 | 5.35 | O=C1c2ccccc2-c2n[nH]c3cccc1c23 + Cc1nc(Nc2ncc(C(=O)Nc3c(C)cccc3Cl)s2)cc(N2CCN(CCO)CC2)n1 [dasatinib] | 2.22 | 2.5 | 2.38 | 2.12 | 2.45 | 3.27 | 2.31 | 3.27 | > 10 | > 10 | 2.88 | 6.49 | > 10 | > 10 | 0.261 | 0.629 | 0.558 | 0.106 | 0.407 | 0.529 | 0.351 | 0.693
4 | 0.0157 | > 10 | CS(=O)c1ccc(-c2nc(-c3ccc(F)cc3)c(-c3ccncc3)[nH]2)cc1 (stereo unspecified) + Cc1nc(Nc2ncc(C(=O)Nc3c(C)cccc3Cl)s2)cc(N2CCN(CCO)CC2)n1 [dasatinib] | 1.82 | 2.65 | 2.31 | 2.3 | 2.45 | 3.73 | 2.73 | 3.76 | > 10 | > 10 | > 10 | > 10 | > 10 | > 10 | 0.434 | 0.716 | 0.593 | 0.516 | 0.655 | 0.962 | 0.746 | 0.893
5 | 2.48 | 3.72 | CN(C)CCOc1ccc(-c2nc(-c3ccncc3)c(-c3ccc4c(c3)CC/C4=N/O)[nH]2)cc1 + Cc1nc(Nc2ncc(C(=O)Nc3c(C)cccc3Cl)s2)cc(N2CCN(CCO)CC2)n1 [dasatinib] | 2.29 | 2.57 | 2.3 | 2.33 | 3.03 | 3.9 | 2.6 | 3.54 | > 10 | 3.46 | 3.9 | 9.95 | 8.34 | 3.76 | 0.0859 | 0.476 | 0.0915 | 0.0583 | 0.497 | 0.0511 | 0.0096 | 0.0493
6 | 0.00424 | 1.21 | COc1cc2c(Nc3ccc(NC(=O)c4ccccc4)cc3)ncnc2cc1OCCCN1CCOCC1 + Cc1nc(Nc2ncc(C(=O)Nc3c(C)cccc3Cl)s2)cc(N2CCN(CCO)CC2)n1 [dasatinib] | 1.54 | 2.43 | 2.17 | 1.76 | 2.35 | 3.27 | 2.13 | 3.33 | > 10 | 2.91 | 0.385 | 4.12 | 5.77 | 9.27 | 0.095 | 0.383 | 0.24 | 0.0572 | 0.191 | 0.0966 | 0.0181 | 0.283
7 | > 10 | > 10 | C[C@@H](N)[C@H]1CC[C@H](C(=O)Nc2ccncc2)CC1.Cl.Cl + Cc1nc(Nc2ncc(C(=O)Nc3c(C)cccc3Cl)s2)cc(N2CCN(CCO)CC2)n1 [dasatinib] | 2.61 | 2.5 | 2.34 | 2.31 | 2.98 | 3.41 | 2.82 | 3.4 | > 10 | > 10 | > 10 | > 10 | > 10 | > 10 | 0.673 | 0.657 | 0.588 | 0.584 | 0.754 | 0.697 | 0.699 | 0.877

Continued, molecule first:

Row | Structure (SMILES) | GI50 of drug [9] [µM] | GI50 of drug [15] [µM] | AUC of dose-response viability curve [1] | AUC of dose-response viability curve [2] | AUC of dose-response viability curve [3] | AUC of dose-response viability curve [4] | AUC of dose-response viability curve [5] | AUC of dose-response viability curve [6] | AUC of dose-response viability curve [7] | AUC of dose-response viability curve [8] | GI50 of drug [10] [µM] | GI50 of drug [11] [µM] | GI50 of drug [12] [µM] | GI50 of drug [13] [µM] | GI50 of drug [14] [µM] | GI50 of drug [16] [µM] | minimum viability across doses [17] | minimum viability across doses [18] | minimum viability across doses [19] | minimum viability across doses [20] | minimum viability across doses [21] | minimum viability across doses [22] | minimum viability across doses [23] | minimum viability across doses [24]
8 | Cc1cnc(Nc2ccc(OCCN3CCCC3)cc2)nc1Nc1cccc(S(=O)(=O)NC(C)(C)C)c1 + Cc1nc(Nc2ncc(C(=O)Nc3c(C)cccc3Cl)s2)cc(N2CCN(CCO)CC2)n1 [dasatinib] | 0.136 | 0.492 | 1.25 | 1.97 | 2.06 | 1.66 | 1.82 | 3.1 | 1.73 | 3.11 | 0.949 | 1.34 | 0.376 | 0.357 | 0.913 | 3.5 | 0.00238 | 0.00825 | 0.0211 | 0.00319 | 0.00313 | 0.00873 | 0.0103 | 0.0831
9 | Cc1cccc(-c2nc(C(C)(C)C)[nH]c2-c2ccc3nccnc3c2)n1 + Cc1nc(Nc2ncc(C(=O)Nc3c(C)cccc3Cl)s2)cc(N2CCN(CCO)CC2)n1 [dasatinib] | > 10 | > 10 | 2.06 | 2.18 | 2.34 | 2.29 | 2.51 | 4.8 | 2.16 | 3.7 | 3.77 | 7.81 | 7.37 | > 10 | > 10 | 8.41 | 0.559 | 0.317 | 0.476 | 0.486 | 0.61 | 0.824 | 0.517 | 0.411
10 | Cc1[nH]c(/C=C2/C(=O)Nc3ccc(S(=O)(=O)N(C)c4cccc(Cl)c4)cc32)c(C)c1C(=O)N1CCN(C)CC1 + Cc1nc(Nc2ncc(C(=O)Nc3c(C)cccc3Cl)s2)cc(N2CCN(CCO)CC2)n1 [dasatinib] | 0.022 | 3.95 | 1.62 | 2.43 | 2.35 | 2.23 | 2.82 | 3.25 | 2.29 | 3.28 | 6.07 | 5.76 | 3.07 | > 10 | 9.29 | > 10 | 0.209 | 0.443 | 0.366 | 0.173 | 0.719 | 0.448 | 0.279 | 0.605
11 | CC(C)(C)c1cnc(CSc2cnc(NC(=O)C3CCNCC3)s2)o1 + Cc1nc(Nc2ncc(C(=O)Nc3c(C)cccc3Cl)s2)cc(N2CCN(CCO)CC2)n1 [dasatinib] | 0.157 | 0.0558 | 1.26 | 1.34 | 2.04 | 1.59 | 2.02 | 2.06 | 1.26 | 1.6 | 0.134 | 1.19 | 0.131 | 0.476 | 0.429 | 0.129 | 0.00387 | 0.0108 | 0.0223 | 0.034 | 0.189 | 0.013 | 0.00565 | 0.00993
12 | CNC(=O)Nc1ccc(-c2nc(N3CC4CCC(C3)O4)c3cnn(C4CCC5(CC4)OCCO5)c3n2)cc1 + Cc1nc(Nc2ncc(C(=O)Nc3c(C)cccc3Cl)s2)cc(N2CCN(CCO)CC2)n1 [dasatinib] | 0.00964 | 0.0107 | 0.872 | 1.24 | 1.16 | 0.907 | 1.19 | 1.2 | 0.872 | 1.64 | 0.0323 | 0.0366 | 0.0167 | 0.0325 | 0.0388 | 0.121 | 0.0427 | 0.116 | 0.0698 | 0.0306 | 0.0572 | 0.00565 | 0.00307 | 0.0731
13 | Nc1nc(N)c2nc(-c3cccc(O)c3)cnc2n1 + Cc1nc(Nc2ncc(C(=O)Nc3c(C)cccc3Cl)s2)cc(N2CCN(CCO)CC2)n1 [dasatinib] | 0.285 | 0.22 | 1.67 | 2.15 | 2.54 | 2.17 | 2.4 | 3.5 | 1.84 | 2.98 | 1.41 | > 10 | 1.76 | 3 | 2.96 | 4.14 | 0.16 | 0.183 | 0.647 | 0.0946 | 0.269 | 0.0458 | 0.0115 | 0.222
14 | Cc1nc(NC(=O)N2CCC[C@H]2C(N)=O)sc1-c1csc(C(C)(C)C)n1 [A66] + Cc1nc(Nc2ncc(C(=O)Nc3c(C)cccc3Cl)s2)cc(N2CCN(CCO)CC2)n1 [dasatinib] | 1.13 | 0.323 | 2.1 | 2.33 | 2.43 | 2.31 | 2.49 | 3.38 | 1.88 | 3.64 | > 10 | > 10 | > 10 | > 10 | > 10 | > 10 | 0.429 | 0.527 | 0.548 | 0.539 | 0.561 | 0.761 | 0.352 | 0.784
